Measurements published in patent publication US20240277677A1, “SALT FORM AND CRYSTAL FORM THEREOF OF SULFONYLUREA RING SUBSTITUTED COMPOUND” (priority 2022, published 2024).
Values after ≈ are worked out from the molar mass of the structure shown.

Assays:
Assay in all cases: Antibacterial activity MIC, micro-liquid dilution method (CLSI)
Format in all cases: cell-based
[1] = test system: Escherichia coli ATCC BAA-2523(OXA-48); conditions: ATCCBAA2523, E. coli ATCC BAA-2523 Class D (OXA-48)
Source text: (§1) Three strains of Klebsiella pneumonia, ATCC BAA-205 (TEM-1/SHV-1/SHV-12), ATCC BAA-1705 (KPC-2), ATCC BAA-2470 (NDM-1), Enterobacter cloacae ATCC BAA-1143 (AmpC), two strains of Escherichia coli ATCC BAA-2523(OXA-48), ATCC 25922 were used to determine the minimum inhibitory concentration (MIC) of each of the compounds by a micro-liquid dilution method according to the Institute of Clinical and Laboratory Standard (CLSI) requirements. A 2-fold serial dilution of the compound (final concentration ranging from 0.125 μg/ml to 128 µg/ml) was added to a round-bottom 96-well plate (Catalog #3788, Corning), fresh monoclonal bacteria were selected from an overnight cultured Mueller Hinton II Agar medium plate (MHA, Cat. No. 211438, BD BBL™) and suspended in sterile saline, the concentration was adjusted to 1×10^8 CFU/mL, and then the solution was diluted by using a cation-adjusted Hinton Mueller culture medium Cation-Adjusted Mueller Hinton II Broth (MHB, Catalog #212332, BD BBL™) to a concentration of 5×10^5 CFU/ml, and 100 μl of the solution was added to a round bottom 96-well plate containing the drugs. The plate was placed upside down at 37° C. and the MIC value was read after 20-24 h of incubation, and the lowest drug concentration that inhibited the growth of bacteria was set as MIC. For the results see Table 1. Colony-Forming Units (CFU) refers to the total number of bacterial colonies per unit volume.

[2] = test system: Enterobacter cloacae ATCC BAA-1143 (AmpC); conditions: ATCCBAA1143, E. cloacae ATCC BAA-1143 Class C (AmpC)
Source text: as §1

[3] = test system: Klebsiella pneumonia ATCC BAA-205 (TEM-1/SHV-1/SHV-12); conditions: Klebsiella pneumoniae, ATCCBAA205
Source text: as §1

[4] = test system: Klebsiella pneumonia ATCC BAA-2470 (NDM-1); conditions: Klebsiella pneumoniae, ATCCBAA2470; K. pneumoniae ATCC BAA-2470 Class B (NDM-1)
Source text: as §1

[5] = test system: Escherichia coli ATCC 25922; conditions: ATCC25922, E. coli ATCC 25922
Source text: as §1

[6] = test system: Klebsiella pneumonia ATCC BAA-1705 (KPC-2); conditions: Klebsiella pneumoniae, ATCCBAA1705; K. pneumoniae ATCC BAA-1705 Class A (KPC-2)
Source text: as §1

## NC[C@@H]1CN(C[C@@H]2[C@H](NC(=O)/C(=N\OC3(C(=O)O)CC3)c3csc(N)n3)C(=O)N2S(=O)O)S(=O)(=O)N1 (stereo in doubt)
[1]
  MIC: 0.125 µg/mL (≈ 0.221 µM)
[2]
  MIC: 0.5 µg/mL (≈ 0.882 µM)
[3]
  MIC: 0.5 µg/mL (≈ 0.882 µM)
[4]
  MIC: 0.25 µg/mL (≈ 0.441 µM)
[5]
  MIC: 0.25 µg/mL (≈ 0.441 µM)
[6]
  MIC: 1 µg/mL (≈ 1.76 µM)
